How the values were obtained:
[1] = (§1) MMV: Anti-babesial activity assay. Parasite pRBCs at 1% parasitemia were cultivated in 100 ul with 96-well plates at 2.5% and 5% hematocrits. The parasites were cultivated in triplicate for 4 days without replacement of the medium for each concentration of the compound.; type: functional, Babesia bovis
[2] = as §1; type: functional, Babesia caballi
[3] = as §1; type: functional, Babesia equi
[4] = as §1; type: functional, Babesia bigemina

`COc1ccc(-c2nc(NC(=O)CS(=O)(=O)c3ccc(F)cc3)sc2C)cc1` gave an IC50 [1] of 17.9 µM, an IC50 [2] of 14.6 µM and an IC50 [3] of 13.4 µM. The IC50 [4] was 17 µM.
Molecule `Cc1ccc(C(=O)c2oc3ccc4c(C)cc(=O)oc4c3c2C)cc1` has an IC50 [1] of 0.07 µM, an IC50 [2] of 9.18 µM and an IC50 [3] of 0.054 µM. The IC50 [4] was 0.065 µM.
Work on `CCN(CC)c1cc(C)c2cc(NC(=O)c3cccc(OC)c3)ccc2n1` yielded an IC50 [1] of 10 µM, an IC50 [2] of 9.33 µM and an IC50 [3] of 0.46 µM. For the same molecule, the IC50 [4] was 8.99 µM.
With `COc1ccccc1CNC(=O)CCn1c(=O)[nH]c2ccccc2c1=O` the IC50 [1] was 19.5 µM, the IC50 [2] was 4.38 µM and the IC50 [3] was 14.2 µM. For the same molecule, the IC50 [4] was 3.9 µM.
For `CCN1CCN(c2cc(C)c3cc(NC(=O)c4ccc(OC)c(OC)c4)ccc3n2)CC1`, the IC50 [1] was 6.69 µM, the IC50 [2] was 5.93 µM and the IC50 [3] was 0.33 µM. For the same molecule, the IC50 [4] was 7.92 µM.
With `CCN(CC)S(=O)(=O)c1ccc(-c2csc(Nc3ccc(C)c(C)c3)n2)cc1` the IC50 [1] was 11.9 µM, the IC50 [2] was 0.08 µM and the IC50 [3] was 14.2 µM. It also gave an IC50 [4] of 10 µM.
Molecule `CCOc1ccc(-c2nonc2NC(=O)c2cccc(C)c2)cc1OCC` has an IC50 [1] of 19.9 µM, an IC50 [2] of 17.5 µM and an IC50 [3] of 18.5 µM. It also gave an IC50 [4] of 13.1 µM.
`CN(C)CCNc1cc(-c2ccccc2)nc2ccccc12` showed an IC50 [1] of 4.65 µM, an IC50 [2] of 0.1 µM and an IC50 [3] of 0.59 µM. The IC50 [4] was 3.03 µM.
For `CC(O)(c1ccc(Cl)cc1)C(CN1CCCCC1)c1ccccc1` (stereo not given), the IC50 [1] was 13.3 µM, the IC50 [2] was 0.08 µM and the IC50 [3] was 7.09 µM. For the same molecule, the IC50 [4] was 0.87 µM.
Molecule `FC(F)(F)c1ccc(Nc2nnnc3ccccc23)cc1` has an IC50 [1] of 25 µM, an IC50 [2] of 13.4 µM and an IC50 [3] of 10 µM. For the same molecule, the IC50 [4] was 7.18 µM.
For `COc1ccc(C2=C(c3ccc(OC)cc3)C3(c4ccccc4)C(=O)C2(c2ccccc2)C2C(=O)N(c4ccc(C)cc4)C(=O)C23)cc1` (stereo not given), the IC50 [1] was 15.4 µM, the IC50 [2] was 14.7 µM and the IC50 [3] was 14.2 µM. For the same molecule, the IC50 [4] was 14.1 µM.
`O=C(Nc1ccc(-c2nc3cc4ccccc4cc3[nH]2)cc1)c1cccc(Br)c1` showed an IC50 [1] of 7 µM, an IC50 [2] of 9.03 µM and an IC50 [3] of 10 µM. The IC50 [4] was 4.91 µM.
In the case of `Cc1ccccc1OCCSc1nc2ccc(NC(=O)c3ccccc3)cc2s1`, the IC50 [1] is reported as 0.9 µM, the IC50 [2] is reported as 16.9 µM and the IC50 [3] is reported as 1 µM. The IC50 [4] was 0.26 µM.
In the case of `CCOC(=O)C1=CN(C)C=C(C(=O)OCC)C1c1cc(Br)c(OCC)c(OC)c1`, the IC50 [1] is reported as 0.091 µM, the IC50 [2] is reported as 2.63 µM and the IC50 [3] is reported as 14.1 µM. The IC50 [4] was 0.1 µM.
Work on `CC1CC2=C(CC1CNCCCN(C)C)C(C)(C)CCC2` (stereo not given) yielded an IC50 [1] of 0.58 µM, an IC50 [2] of 5.9 µM and an IC50 [3] of 0.13 µM. It also gave an IC50 [4] of 2.12 µM.
Work on `O=c1nc(C=Cc2ccc(Br)cc2)oc2ccccc12` yielded an IC50 [1] of 15.3 µM, an IC50 [2] of 13.6 µM and an IC50 [3] of 14.3 µM. The IC50 [4] was 10 µM.
Molecule `CCOc1cccc2sc(N(Cc3cccnc3)C(=O)C3CCCCC3)nc12` has an IC50 [1] of 25 µM, an IC50 [2] of 0.076 µM and an IC50 [3] of 4.77 µM. The IC50 [4] was 21.6 µM.
Work on `Oc1ccc(Br)cc1CN1CCN(Cc2ccc(Cl)cc2)CC1` yielded an IC50 [1] of 8.61 µM, an IC50 [2] of 3.86 µM and an IC50 [3] of 2.95 µM. For the same molecule, the IC50 [4] was 25 µM.
Molecule `CCOc1ccc(N2C(N)=NC(N)=NC2(C)C)cc1` has an IC50 [1] of 15.2 µM, an IC50 [2] of 2.95 µM and an IC50 [3] of 14 µM. The IC50 [4] was 5.9 µM.
With `O=C(NCC(c1ccsc1)N1CCCCCC1)c1ccc(C(F)(F)F)cc1` (stereo not given) the IC50 [1] was 18.2 µM, the IC50 [2] was 10 µM and the IC50 [3] was 18.1 µM. The IC50 [4] was 13.6 µM.
Work on `O=C(NC1CCCCC1)C(c1cccs1)N(CCc1ccccc1)C(=O)c1ccco1` (stereo not given) yielded an IC50 [1] of 8.8 µM, an IC50 [2] of 10.7 µM and an IC50 [3] of 14.1 µM. For the same molecule, the IC50 [4] was 10.7 µM.
In the case of `COc1ccc(-c2cc3c(SCC(=O)Nc4cc(C(F)(F)F)ccc4Cl)nccn3n2)cc1`, the IC50 [1] is reported as over 25 µM, the IC50 [2] is reported as 9.61 µM and the IC50 [3] is reported as 25 µM. It also gave an IC50 [4] of 17.1 µM.
`O=C(Nc1ccc(F)c(Cl)c1)Nc1ccc(Cl)c(Cl)c1` showed an IC50 [1] of 3.53 µM, an IC50 [2] of 3.81 µM and an IC50 [3] of 3.39 µM. The IC50 [4] was 3.39 µM.
Work on `O=C1c2ccccc2C2=Nc3ccccc3SC(c3cccc(F)c3)C12` (stereo not given) yielded an IC50 [1] of 0.31 µM, an IC50 [2] of 0.13 µM and an IC50 [3] of 14.8 µM. It also gave an IC50 [4] of 5.3 µM.
In the case of `COc1cccc(Cn2c(Oc3ccccc3)nc3c2c(=O)n(C)c(=O)n3C)c1`, the IC50 [1] is reported as 10.3 µM, the IC50 [2] is reported as 5.7 µM and the IC50 [3] is reported as over 25 µM. It also gave an IC50 [4] of 10 µM.
`Cc1cc(C)cc(Nc2cc(C)nc3nc(C(F)(F)F)nn23)c1` showed an IC50 [1] of 20.6 µM, an IC50 [2] of 12.4 µM and an IC50 [3] of 21.9 µM. It also gave an IC50 [4] of 13.6 µM.
`Cc1ccc(F)cc1NC(=O)c1cc(Cl)ccc1Nc1ccccc1` gave an IC50 [1] of 18.6 µM, an IC50 [2] of 2.56 µM and an IC50 [3] of over 25 µM. The IC50 [4] was 10.2 µM.
Work on `CCCCc1ccc(NS(=O)(=O)c2cc3c4c(c2)CCN4C(=O)CC3)cc1` yielded an IC50 [1] of 25 µM, an IC50 [2] of 0.07 µM and an IC50 [3] of 0.57 µM. It also gave an IC50 [4] of 12.5 µM.
Molecule `COc1nc(Nc2ccc(C(C)C)cc2)nc(OC)n1` has an IC50 [1] of 1.03 µM, an IC50 [2] of 0.076 µM and an IC50 [3] of 12.3 µM. It also gave an IC50 [4] of 10.1 µM.
With `Cc1sc2ncnc(Sc3nc4ccccc4[nH]3)c2c1C` the IC50 [1] was 0.05 µM, the IC50 [2] was 0.29 µM and the IC50 [3] was 5.5 µM. The IC50 [4] was 0.41 µM.
Molecule `O=C(NC1CCCC1)c1ccc(N2CCC(NCc3cccc(C(F)(F)F)c3)CC2)cc1` has an IC50 [1] of 14 µM, an IC50 [2] of 13.4 µM and an IC50 [3] of 10 µM. For the same molecule, the IC50 [4] was 25 µM.
`COc1ccc(-c2nc(N3CCN(C(=O)C4CCCCC4)CC3)c3c4c(sc3n2)CCCC4)cc1` showed an IC50 [1] of 1.07 µM, an IC50 [2] of 11.9 µM and an IC50 [3] of 8.36 µM. It also gave an IC50 [4] of 1 µM.
Molecule `COc1ccccc1CNC(=O)CCn1c(=O)[nH]c2ccsc2c1=O` has an IC50 [1] of 8.93 µM, an IC50 [2] of 2.05 µM and an IC50 [3] of 15.2 µM. For the same molecule, the IC50 [4] was 0.68 µM.
Molecule `CCN(CC)CCn1c(=N)n(CC(O)c2ccc(Cl)c(Cl)c2)c2ccccc21` (stereo not given) has an IC50 [1] of 10.1 µM, an IC50 [2] of 5.62 µM and an IC50 [3] of 3.91 µM. The IC50 [4] was 17.2 µM.
Molecule `Cc1ccc(C)c(-c2csc(Nc3ccc(C)c(C)c3)n2)c1` has an IC50 [1] of 0.06 µM, an IC50 [2] of 0.71 µM and an IC50 [3] of 0.14 µM. For the same molecule, the IC50 [4] was 8.05 µM.
For `Cc1cc(NC(=O)c2ccc(-c3ccccc3)cc2)no1`, the IC50 [1] was 0.24 µM, the IC50 [2] was 0.076 µM and the IC50 [3] was 12.4 µM. It also gave an IC50 [4] of 8.54 µM.
With `OC1=C2C(=Nc3ccccc3SC2c2ccc(Br)cc2)c2ccccc21` (stereo not given) the IC50 [1] was 11.1 µM, the IC50 [2] was 7.95 µM and the IC50 [3] was 12 µM. The IC50 [4] was 15.2 µM.
Work on `Cc1c(C)n(Cc2ccc(F)cc2)c2ccc(C(=O)NCc3ccco3)cc12` yielded an IC50 [1] of 24.7 µM, an IC50 [2] of 10 µM and an IC50 [3] of 15.8 µM. It also gave an IC50 [4] of 0.288 µM.
`COc1ccc(-c2nonc2NC(=O)c2cccc(Cl)c2)cc1OC` showed an IC50 [1] of 10 µM, an IC50 [2] of 11.5 µM and an IC50 [3] of 16.6 µM. For the same molecule, the IC50 [4] was 8.2 µM.
`OC(CNC1CCCCC1)Cn1c2ccccc2c2ccccc21` (stereo not given) gave an IC50 [1] of 17.3 µM, an IC50 [2] of 13.8 µM and an IC50 [3] of 17.3 µM. It also gave an IC50 [4] of 17.3 µM.
`Nc1nc(Nc2cccc(F)c2)nc2ccccc12` gave an IC50 [1] of 0.73 µM, an IC50 [2] of 6.08 µM and an IC50 [3] of 0.79 µM. It also gave an IC50 [4] of 7.65 µM.
For `OC1=C2C(=Nc3ccccc3SC2c2ccccc2)c2ccccc21` (stereo not given), the IC50 [1] was 0.1 µM, the IC50 [2] was 8.77 µM and the IC50 [3] was 0.1 µM. It also gave an IC50 [4] of 0.5 µM.
`CCCc1c(C)nc2ccccc2c1O` gave an IC50 [1] of 15.3 µM, an IC50 [2] of 3.7 µM and an IC50 [3] of 2.4 µM. For the same molecule, the IC50 [4] was 2.96 µM.
Work on `COc1cc(-c2nc(-c3ccccc3)c(-c3ccccc3)[nH]2)cc(OC)c1O` yielded an IC50 [1] of 8.03 µM, an IC50 [2] of 21.7 µM and an IC50 [3] of 12 µM. It also gave an IC50 [4] of 3.34 µM.
For `COc1cc2c3cc1Oc1c(OC)c(OC)cc4c1C(Cc1ccc(O)c(c1)Oc1ccc(cc1)CC3N(C)CC2)N(C)CC4` (stereo not given), the IC50 [1] was 0.068 µM, the IC50 [2] was 3.86 µM and the IC50 [3] was 0.26 µM. It also gave an IC50 [4] of 10 µM.

— ChEMBL document CHEMBL3301464, “MMV Malaria Box anti-babesial screening”
